In US20170349540A1, “HISTONE DEACETYLASE INHIBITORS” (The General Hospital Corporation, priority 2014, published 2017):

What was measured:
HDAC1 = biological target: T1, HDAC1 (Homo sapiens, UniProt Q13547); assay: HDAC inhibition assay (Caliper EZ reader, FAM-labeled peptide substrate); type: biochemical; conditions: recombinant human HDAC, 60 min at room temperature, 2 μM substrate
T1 construct: purchased BPS Bioscience
Procedure: (§1) All recombinant human HDACs were purchased from BPS Bioscience. The substrates, Broad Substrate A and Broad Substrate B (see International App. No. WO 2013/067391), were synthesized in-house. All other reagents were purchased from Sigma-Aldrich. […] Reactions were terminated by the addition of 1.5 μM of the known pan-HDAC inhibitor LBH-589 (panobinostat). […] The reactions were performed in duplicate for each sample.

HDAC2 = biological target: T2, HDAC2 (Homo sapiens, UniProt Q92769); assay: as above; type: biochemical; conditions: recombinant human HDAC, 60 min at room temperature, 2 μM substrate
T2 construct: purchased BPS Bioscience
T2 sequence (Q92769 whole entry): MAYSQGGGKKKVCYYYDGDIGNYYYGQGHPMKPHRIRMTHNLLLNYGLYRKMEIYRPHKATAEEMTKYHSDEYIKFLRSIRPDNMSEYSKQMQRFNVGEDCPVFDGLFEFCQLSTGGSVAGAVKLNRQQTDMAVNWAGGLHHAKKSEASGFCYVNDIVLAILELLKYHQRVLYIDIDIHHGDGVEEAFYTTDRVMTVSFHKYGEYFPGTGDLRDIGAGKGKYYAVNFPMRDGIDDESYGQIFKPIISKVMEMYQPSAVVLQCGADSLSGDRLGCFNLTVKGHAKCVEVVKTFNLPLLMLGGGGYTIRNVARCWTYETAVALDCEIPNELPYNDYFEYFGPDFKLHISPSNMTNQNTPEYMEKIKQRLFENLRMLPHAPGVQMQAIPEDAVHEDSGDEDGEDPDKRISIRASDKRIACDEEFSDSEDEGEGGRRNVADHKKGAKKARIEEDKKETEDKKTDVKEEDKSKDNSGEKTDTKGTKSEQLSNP
Procedure: as §1

HDAC3 = biological target: T3, HDAC3 (Homo sapiens, UniProt O15379); assay: as above; type: biochemical; conditions: recombinant human HDAC, 60 min at room temperature, 2 μM substrate
T3 construct: purchased BPS Bioscience
T3 sequence (O15379 whole entry): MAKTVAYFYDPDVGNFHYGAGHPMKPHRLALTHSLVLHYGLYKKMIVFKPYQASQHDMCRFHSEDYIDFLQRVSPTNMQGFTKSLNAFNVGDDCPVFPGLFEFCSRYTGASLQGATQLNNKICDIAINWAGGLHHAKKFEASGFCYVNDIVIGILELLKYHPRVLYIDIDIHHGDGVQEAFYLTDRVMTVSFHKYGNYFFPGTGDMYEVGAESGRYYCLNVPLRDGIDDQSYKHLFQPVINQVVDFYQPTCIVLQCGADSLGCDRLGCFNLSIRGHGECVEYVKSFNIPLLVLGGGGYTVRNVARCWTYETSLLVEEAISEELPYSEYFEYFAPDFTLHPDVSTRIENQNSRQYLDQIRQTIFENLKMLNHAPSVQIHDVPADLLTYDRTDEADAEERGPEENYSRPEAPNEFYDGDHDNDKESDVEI
T3 sequence (Q9Y618 395-489 partner limits assumed): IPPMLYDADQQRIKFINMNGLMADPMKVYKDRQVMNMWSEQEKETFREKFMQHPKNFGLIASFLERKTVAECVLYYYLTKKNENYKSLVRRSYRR
Procedure: as §1

HDAC4 = biological target: T4, HDAC4 (Homo sapiens, UniProt P56524); assay: as above; type: biochemical; conditions: recombinant human HDAC, 60 min at room temperature, 2 μM substrate
T4 construct: purchased BPS Bioscience
T4 sequence (P56524 whole entry): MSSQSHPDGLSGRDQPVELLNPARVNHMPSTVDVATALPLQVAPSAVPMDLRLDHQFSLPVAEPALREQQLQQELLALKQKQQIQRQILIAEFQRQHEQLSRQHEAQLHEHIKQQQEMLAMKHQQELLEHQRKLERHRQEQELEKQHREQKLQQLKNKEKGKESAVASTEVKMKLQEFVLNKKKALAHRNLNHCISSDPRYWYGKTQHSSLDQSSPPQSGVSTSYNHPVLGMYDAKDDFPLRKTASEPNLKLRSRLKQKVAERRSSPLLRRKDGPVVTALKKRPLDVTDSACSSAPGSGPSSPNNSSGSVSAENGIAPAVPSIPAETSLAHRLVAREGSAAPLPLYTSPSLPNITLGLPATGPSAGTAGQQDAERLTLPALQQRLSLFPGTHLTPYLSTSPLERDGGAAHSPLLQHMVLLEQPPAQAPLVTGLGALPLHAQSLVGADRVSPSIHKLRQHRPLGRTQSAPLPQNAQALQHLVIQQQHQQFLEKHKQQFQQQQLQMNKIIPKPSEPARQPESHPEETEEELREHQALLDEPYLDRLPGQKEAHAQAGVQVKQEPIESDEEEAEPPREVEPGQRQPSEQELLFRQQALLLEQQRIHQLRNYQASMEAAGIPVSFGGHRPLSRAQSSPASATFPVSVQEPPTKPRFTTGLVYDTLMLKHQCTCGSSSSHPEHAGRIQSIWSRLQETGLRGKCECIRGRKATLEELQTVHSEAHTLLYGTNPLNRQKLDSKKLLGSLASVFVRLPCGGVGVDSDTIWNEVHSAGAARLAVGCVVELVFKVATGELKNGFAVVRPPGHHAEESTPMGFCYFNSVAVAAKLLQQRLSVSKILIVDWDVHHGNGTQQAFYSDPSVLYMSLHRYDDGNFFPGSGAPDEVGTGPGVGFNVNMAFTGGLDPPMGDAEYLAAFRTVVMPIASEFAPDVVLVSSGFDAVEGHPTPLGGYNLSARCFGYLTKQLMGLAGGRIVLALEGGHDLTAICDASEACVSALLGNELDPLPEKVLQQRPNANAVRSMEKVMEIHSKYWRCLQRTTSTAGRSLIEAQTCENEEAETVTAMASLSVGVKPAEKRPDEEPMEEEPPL
Procedure: as §1

HDAC5 = biological target: T5, HDAC5 (Homo sapiens, UniProt Q9UQL6); assay: as above; type: biochemical; conditions: recombinant human HDAC, 60 min at room temperature, 2 μM substrate
T5 construct: purchased BPS Bioscience
T5 sequence (Q9UQL6 whole entry): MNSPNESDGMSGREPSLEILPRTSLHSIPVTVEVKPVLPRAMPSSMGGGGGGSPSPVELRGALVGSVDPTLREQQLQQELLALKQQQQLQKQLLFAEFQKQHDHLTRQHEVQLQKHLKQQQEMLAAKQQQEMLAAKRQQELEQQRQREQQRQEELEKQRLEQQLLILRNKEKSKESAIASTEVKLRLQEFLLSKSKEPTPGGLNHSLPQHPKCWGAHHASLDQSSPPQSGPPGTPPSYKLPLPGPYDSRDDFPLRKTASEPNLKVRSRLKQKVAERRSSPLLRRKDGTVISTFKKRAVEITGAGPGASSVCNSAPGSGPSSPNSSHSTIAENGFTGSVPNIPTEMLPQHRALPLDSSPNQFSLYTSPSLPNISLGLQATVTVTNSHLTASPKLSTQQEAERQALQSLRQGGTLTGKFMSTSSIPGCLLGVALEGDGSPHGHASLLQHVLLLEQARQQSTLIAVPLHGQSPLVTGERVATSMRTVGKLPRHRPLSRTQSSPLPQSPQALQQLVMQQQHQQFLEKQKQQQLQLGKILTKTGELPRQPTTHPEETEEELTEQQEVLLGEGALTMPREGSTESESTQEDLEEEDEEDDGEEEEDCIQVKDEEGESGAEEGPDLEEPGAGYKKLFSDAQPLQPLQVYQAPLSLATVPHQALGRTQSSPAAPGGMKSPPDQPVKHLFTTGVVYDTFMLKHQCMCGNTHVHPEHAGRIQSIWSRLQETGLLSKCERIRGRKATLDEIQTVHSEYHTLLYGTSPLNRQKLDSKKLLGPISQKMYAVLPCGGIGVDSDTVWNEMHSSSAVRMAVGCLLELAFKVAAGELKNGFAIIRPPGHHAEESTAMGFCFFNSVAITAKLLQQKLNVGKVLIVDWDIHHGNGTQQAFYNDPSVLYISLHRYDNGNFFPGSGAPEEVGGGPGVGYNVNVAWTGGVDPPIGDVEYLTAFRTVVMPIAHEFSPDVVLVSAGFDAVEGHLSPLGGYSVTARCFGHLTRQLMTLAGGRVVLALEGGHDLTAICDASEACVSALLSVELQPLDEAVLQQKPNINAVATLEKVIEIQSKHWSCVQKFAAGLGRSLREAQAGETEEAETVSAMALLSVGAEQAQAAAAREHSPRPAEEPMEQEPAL
Procedure: as §1

HDAC6 = biological target: T6, HDAC6 (Homo sapiens, UniProt Q9UBN7); assay: as above; type: biochemical; conditions: recombinant human HDAC, 60 min at room temperature, 2 μM substrate
T6 construct: purchased BPS Bioscience
T6 sequence (Q9UBN7 1-1215): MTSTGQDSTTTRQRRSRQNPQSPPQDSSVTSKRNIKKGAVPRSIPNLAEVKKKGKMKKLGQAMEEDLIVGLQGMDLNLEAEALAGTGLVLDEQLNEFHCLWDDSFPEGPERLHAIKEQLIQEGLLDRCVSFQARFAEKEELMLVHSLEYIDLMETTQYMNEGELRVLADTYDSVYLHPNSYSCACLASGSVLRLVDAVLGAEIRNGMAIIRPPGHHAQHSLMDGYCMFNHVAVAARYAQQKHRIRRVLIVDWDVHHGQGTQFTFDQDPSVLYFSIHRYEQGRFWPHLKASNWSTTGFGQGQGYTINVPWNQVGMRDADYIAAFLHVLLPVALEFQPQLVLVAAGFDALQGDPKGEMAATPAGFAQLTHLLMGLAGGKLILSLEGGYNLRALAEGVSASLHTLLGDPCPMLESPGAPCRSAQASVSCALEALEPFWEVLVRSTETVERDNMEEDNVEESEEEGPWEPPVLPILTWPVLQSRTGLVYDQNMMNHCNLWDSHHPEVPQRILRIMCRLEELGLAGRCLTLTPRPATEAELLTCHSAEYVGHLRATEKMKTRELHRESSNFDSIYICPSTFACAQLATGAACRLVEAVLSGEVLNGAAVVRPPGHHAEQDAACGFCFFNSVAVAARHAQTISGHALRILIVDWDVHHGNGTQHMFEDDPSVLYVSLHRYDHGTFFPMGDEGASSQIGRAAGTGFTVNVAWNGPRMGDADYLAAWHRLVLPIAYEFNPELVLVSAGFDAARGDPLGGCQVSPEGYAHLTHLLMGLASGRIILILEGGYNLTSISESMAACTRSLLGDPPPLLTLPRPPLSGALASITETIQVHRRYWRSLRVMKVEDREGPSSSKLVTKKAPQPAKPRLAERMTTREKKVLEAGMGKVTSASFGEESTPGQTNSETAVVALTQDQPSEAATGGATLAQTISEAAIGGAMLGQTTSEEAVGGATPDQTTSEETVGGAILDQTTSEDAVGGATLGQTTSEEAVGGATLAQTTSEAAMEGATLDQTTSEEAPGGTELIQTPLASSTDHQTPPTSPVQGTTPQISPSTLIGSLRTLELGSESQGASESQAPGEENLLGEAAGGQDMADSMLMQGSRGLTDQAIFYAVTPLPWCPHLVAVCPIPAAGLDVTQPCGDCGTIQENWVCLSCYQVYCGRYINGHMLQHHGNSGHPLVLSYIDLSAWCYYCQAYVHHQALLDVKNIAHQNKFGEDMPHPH
Procedure: as §1

HDAC7 = biological target: T7, HDAC7 (Homo sapiens, UniProt Q8WUI4); assay: as above; type: biochemical; conditions: recombinant human HDAC, 60 min at room temperature, 2 μM substrate
T7 construct: purchased BPS Bioscience
T7 sequence (Q8WUI4 1-952): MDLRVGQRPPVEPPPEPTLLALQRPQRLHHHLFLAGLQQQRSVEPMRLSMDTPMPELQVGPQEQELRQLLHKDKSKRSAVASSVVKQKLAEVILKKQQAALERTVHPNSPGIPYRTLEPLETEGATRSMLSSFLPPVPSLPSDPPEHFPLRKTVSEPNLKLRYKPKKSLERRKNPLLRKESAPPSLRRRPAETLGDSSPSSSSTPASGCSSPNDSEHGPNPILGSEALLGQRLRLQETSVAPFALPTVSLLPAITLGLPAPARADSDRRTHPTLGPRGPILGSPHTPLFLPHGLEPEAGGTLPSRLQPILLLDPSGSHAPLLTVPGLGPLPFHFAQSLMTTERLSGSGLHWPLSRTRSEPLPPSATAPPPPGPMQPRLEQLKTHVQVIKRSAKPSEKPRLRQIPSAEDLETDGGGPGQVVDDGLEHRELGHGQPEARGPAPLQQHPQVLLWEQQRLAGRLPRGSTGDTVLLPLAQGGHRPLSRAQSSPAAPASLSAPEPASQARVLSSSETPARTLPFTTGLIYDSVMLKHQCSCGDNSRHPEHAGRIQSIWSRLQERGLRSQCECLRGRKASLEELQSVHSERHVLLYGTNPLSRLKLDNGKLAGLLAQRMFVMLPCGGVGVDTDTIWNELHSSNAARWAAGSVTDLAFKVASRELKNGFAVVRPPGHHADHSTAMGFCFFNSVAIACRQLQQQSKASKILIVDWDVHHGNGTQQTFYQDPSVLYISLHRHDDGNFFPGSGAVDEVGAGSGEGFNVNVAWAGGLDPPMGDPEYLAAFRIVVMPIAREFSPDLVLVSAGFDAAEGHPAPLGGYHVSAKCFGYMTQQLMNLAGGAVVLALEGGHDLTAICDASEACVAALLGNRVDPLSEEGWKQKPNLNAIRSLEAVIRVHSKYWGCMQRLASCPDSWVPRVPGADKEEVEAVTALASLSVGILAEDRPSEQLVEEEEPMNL
Procedure: as §1

HDAC8 = biological target: T8, HDAC8 (Homo sapiens, UniProt Q9BY41); assay: as above; type: biochemical; conditions: recombinant human HDAC, 60 min at room temperature, 2 μM substrate
T8 construct: purchased BPS Bioscience
T8 sequence (Q9BY41 1-377): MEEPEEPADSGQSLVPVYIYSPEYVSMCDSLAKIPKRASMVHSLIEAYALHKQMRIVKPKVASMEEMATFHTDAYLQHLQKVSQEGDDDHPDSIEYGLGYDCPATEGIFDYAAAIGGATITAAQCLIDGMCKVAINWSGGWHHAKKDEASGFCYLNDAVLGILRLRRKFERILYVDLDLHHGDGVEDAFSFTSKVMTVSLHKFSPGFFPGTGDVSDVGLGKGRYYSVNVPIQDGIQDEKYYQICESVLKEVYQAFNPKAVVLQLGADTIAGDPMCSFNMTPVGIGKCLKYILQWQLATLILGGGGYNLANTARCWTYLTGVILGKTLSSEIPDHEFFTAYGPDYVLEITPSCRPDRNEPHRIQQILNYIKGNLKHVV
Procedure: as §1

HDAC9 = biological target: T9, HDAC9 (Homo sapiens, UniProt Q9UKV0); assay: as above; type: biochemical; conditions: recombinant human HDAC, 60 min at room temperature, 2 μM substrate
T9 construct: purchased BPS Bioscience
T9 sequence (Q9UKV0 whole entry): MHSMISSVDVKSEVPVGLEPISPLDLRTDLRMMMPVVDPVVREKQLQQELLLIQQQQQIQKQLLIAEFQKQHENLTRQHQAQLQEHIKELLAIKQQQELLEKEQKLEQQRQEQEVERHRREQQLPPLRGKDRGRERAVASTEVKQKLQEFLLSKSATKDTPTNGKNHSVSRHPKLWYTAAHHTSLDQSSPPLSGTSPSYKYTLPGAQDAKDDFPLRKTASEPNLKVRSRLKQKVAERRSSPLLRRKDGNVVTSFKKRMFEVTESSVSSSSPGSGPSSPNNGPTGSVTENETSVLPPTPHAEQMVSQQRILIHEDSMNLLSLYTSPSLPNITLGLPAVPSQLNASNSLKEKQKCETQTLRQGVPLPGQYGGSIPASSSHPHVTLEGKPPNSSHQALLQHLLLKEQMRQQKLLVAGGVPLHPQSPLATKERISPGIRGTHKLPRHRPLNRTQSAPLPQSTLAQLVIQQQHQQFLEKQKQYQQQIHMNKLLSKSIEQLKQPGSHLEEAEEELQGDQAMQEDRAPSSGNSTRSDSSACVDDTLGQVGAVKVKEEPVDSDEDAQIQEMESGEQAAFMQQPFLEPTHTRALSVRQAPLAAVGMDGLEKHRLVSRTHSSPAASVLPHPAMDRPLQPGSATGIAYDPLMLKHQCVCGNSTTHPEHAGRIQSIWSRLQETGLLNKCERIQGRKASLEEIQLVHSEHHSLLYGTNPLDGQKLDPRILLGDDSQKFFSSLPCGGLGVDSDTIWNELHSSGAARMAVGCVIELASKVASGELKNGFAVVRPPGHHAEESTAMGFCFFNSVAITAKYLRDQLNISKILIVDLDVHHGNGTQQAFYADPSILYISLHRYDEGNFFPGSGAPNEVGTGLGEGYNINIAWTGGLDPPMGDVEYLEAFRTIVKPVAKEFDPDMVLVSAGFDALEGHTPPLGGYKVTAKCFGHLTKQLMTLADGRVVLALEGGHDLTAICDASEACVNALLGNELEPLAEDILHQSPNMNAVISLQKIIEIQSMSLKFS
Procedure: as §1

HDAC = assay: In vivo PET imaging: blocking of whole brain uptake of the radiolabeled compound of Example 3; set-up: species or system rat; conditions: self-blocking, 5 min pretreatment with 1.0 μg-2.0 mg/kg unlabeled compound; radiotracer of Example 3
Procedure: Male Sprague-Dawley rats were utilized in pairs, anesthetized with inhalational isoflurane (Forane) at 3% in a carrier of 1.5-2 L/min medical oxygen and maintained at 2% isoflurane for the duration of the scan. The rats were arranged head-to-head in a Triumph Trimodality PET/CT/SPECT scanner (Gamma Medica, Northridge, Calif.). Rats were injected standard references or vehicle via a lateral tail vein catheterization at the start of Positron Emission Tomography (PET) acquisition. Dynamic PET acquisition lasted for 60 min and was followed by computed tomography (CT) for anatomic co-registration. PET data were reconstructed using a 3D-MLEM method resulting in a full width at half-maximum resolution of 1 mm. Reconstructed images were exported from the scanner in DICOM format along with an anatomic CT for rodent studies. These files were imported to PMOD (PMOD Technologies, Ltd.) and manually coregistered using six degrees of freedom.
Volumes of interest (VOIs) were drawn manually as spheres in brain regions guided by high resolution CT structural images and summed PET data, with a radius no less than 1 mm to minimize partial volume effects. Time-activity curves (TACs) were exported in terms of decay corrected activity per unit volume at specified time points with gradually increasing intervals. The TACs were expressed as percent injected dose per unit volume for analysis.
Summed PET images following injection with the ^11C radiolabeled (E)-3-(4-((((1r,3R,5S)-adamantan-1-ylmethyl)(methyl)amino)methyl)phenyl)-N-hydroxyacrylamide (Example 3) at baseline or after 5 minutes pretreatment with 0.5 or 2.0 mg/kg unlabeled (E)-3-(4-((((1 r,3R,5 S)-adamantan-1-ylmethyl) (methyl)amino)methyl)phenyl)-N-hydroxyacrylamide illustrate brain uptake and self-blocking, as shown in FIG. 1A. Whole-brain tracer uptake levels, normalized to uptake at 10 min, were altered by 10-40% in self-blocking experiments with 5 min pretreatment with 1.0 μg-2.0 mg/kg unlabeled (E)-3-(4-((((1r,3R,5S)-adamantan-1-ylmethyl) (methyl)amino)methyl)phenyl)-N-hydroxyacrylamide, as shown in FIGS. 1B and 1C. This quantification provides a means to measure occupancy of HDAC targets on the basis of blocked binding of the radiolabeled compound of Example 3.
Whole brain uptake of the radiotracer of Example 3 was measured 4 h after acute systemic treatment.

T1 sequence (Q13547 whole entry): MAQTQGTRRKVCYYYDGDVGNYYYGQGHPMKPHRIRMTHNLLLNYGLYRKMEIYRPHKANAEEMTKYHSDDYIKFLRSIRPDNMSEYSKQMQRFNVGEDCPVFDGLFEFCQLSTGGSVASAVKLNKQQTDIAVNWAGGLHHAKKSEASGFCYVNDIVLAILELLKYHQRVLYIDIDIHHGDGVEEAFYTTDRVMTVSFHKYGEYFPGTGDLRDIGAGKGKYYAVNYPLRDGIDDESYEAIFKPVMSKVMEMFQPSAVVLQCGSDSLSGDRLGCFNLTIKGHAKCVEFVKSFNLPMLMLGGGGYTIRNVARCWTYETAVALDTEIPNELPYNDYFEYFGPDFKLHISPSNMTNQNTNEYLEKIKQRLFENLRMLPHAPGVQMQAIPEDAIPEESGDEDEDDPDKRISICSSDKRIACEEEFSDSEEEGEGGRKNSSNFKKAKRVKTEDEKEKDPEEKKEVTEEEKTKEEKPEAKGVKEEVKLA

O=C(/C=C/c1ccc(CN(CCF)CC23CC4CC(CC(C4)C2)C3)cc1)NO
IC50 (HDAC1): 222 nM
IC50 (HDAC2): 651 nM
IC50 (HDAC3): 470 nM
IC50 (HDAC4): > 12000 nM
IC50 (HDAC5): > 5000 nM
IC50 (HDAC6): 308 nM
IC50 (HDAC7): > 30000 nM
IC50 (HDAC8): > 30000 nM
IC50 (HDAC9): > 30000 nM

O=C(/C=C/c1ccc(CNCC23CC4CC(CC(C4)C2)C3)c(F)c1)NO
IC50 (HDAC1): 0.8 nM
IC50 (HDAC2): 6.4 nM
IC50 (HDAC3): 0.5 nM
IC50 (HDAC4): > 70000 nM
IC50 (HDAC5): 4310 nM
IC50 (HDAC6): > 40000 nM
IC50 (HDAC7): > 70000 nM
IC50 (HDAC8): > 5000 nM
IC50 (HDAC9): > 50000 nM

CN(Cc1ccc(/C=C/C(=O)NO)cc1)CC12CC3CC(CC(C3)C1)C2 [Example 1, (E)-3-(4-((((1r,3R,5S)-adamantan-1-ylmethyl)(methyl)amino)methyl)phenyl)-N-hydroxyacrylamide]
Whole-brain tracer uptake levels, normalized to uptake at 10 min, altered by (HDAC): 10-40%

CN(Cc1ccc(/C=C/C(=O)Nc2ccccc2N)cc1)CC12CC3CC(CC(C3)C1)C2 [drawing 61]
IC50 (HDAC1): 149 nM
IC50 (HDAC2): 602 nM
IC50 (HDAC3): 216 nM
IC50 (HDAC5): > 40000 nM
IC50 (HDAC6): > 10000 nM
IC50 (HDAC7): > 40000 nM
IC50 (HDAC8): > 40000 nM
